Literature values as cited in patent US20250268832A1, “Pretomanid Compositions” (The Global Alliance for TB Drug Development, Inc., priority 2019, published 2025).

Legend:
[1] = test system: drug-resistant clinical isolates; settings: background statement
[2] = poorly soluble
[3] = test system: Mycobacterium tuberculosis; settings: background statement

O=[N+]([O-])c1cn2c(n1)OC[C@@H](OCc1ccc(OC(F)(F)F)cc1)C2 [Pretomanid, (65)-2-nitro-6-{[4-(trifluoromethoxy)benzyl]oxy}-6,7,-dihydro-5H-imidazol[2.1b][1.3]oxazine]
activity in vitro against drug-resistant clinical isolates [1]: activity in vitro against all tested drug-resistant clinical isolates | Biopharmaceutics Classification System (BCS) class [2]: Class II/IV | activity in mice [3]: potent bactericidal and sterilizing agent
